From a melting point compilation (Tetko et al.; mined from patent text by program, amines drawn as free bases though some values may be those of a salt)

| melting point | Compound |
| --- | --- |
| 106 to 108 °C | CCCCOC(=O)CN(Cc1ccccc1OC)S(=O)(=O)c1ccc2c(Cl)cnc(Cl)c2c1 |
| 290 °C | O=C(NCc1ccc2c(c1)OCO2)c1ccc2[nH]c(=O)n(Cc3ccc(Cl)cc3)c(=O)c2c1 |
| 167 to 170 °C | CC(C)(C)C(NC(=O)c1ccc(Cl)cc1)NC(=NC#N)Nc1cccc(F)c1 (centres undefined) |
| 106 to 107 °C | CSc1ccc(C(CC(F)(F)F)=NO)cc1 |
| 147 to 148 °C | O=C(O)CCc1cn(Cc2ccc(OCc3ccccc3)cc2)nc1-c1ccccc1 |
| 134 to 135 °C | CC(C)(C)OC(=O)N1C(=O)O[C@@H](c2ccc(F)cc2)[C@H]1Cc1ccc(C(F)(F)F)o1 (racemic) |
| 86 to 90 °C | CC(C)c1c(NC(=O)OCc2ccccc2)nc(-c2ccc(F)cc2)n1CCC1CC(O)CC(=O)O1 (centres undefined) |
| 128 to 130 °C | CCOC(=O)c1ccc(NCc2ccc(OC)cc2)cc1 |
| 202 °C | O=c1cc(-c2cc3ccccc3cc2O)oc2ccccc12 |
| 174 to 175 °C | CC(=NOCC(=O)O)c1ccc(NS(C)(=O)=O)c(Oc2ccc(F)cc2F)c1 |
| 159 to 169 °C | COc1ccc(Nc2ccc(Nc3ncnc4cc(-c5ccc(OC)cc5)sc34)cc2)cc1 |
| 130 °C | O=S1(=O)c2cccc3cccc(c23)N1CC(O)CN1CCN(c2ccc(F)cc2)CC1 (centres undefined) |
| 84 to 89 °C | OC(CNC1CCc2ccccc2C1)COc1cccc(C(F)(F)F)c1 (centres undefined) |
| 216 °C | Cc1cc(-c2cc(C(F)(F)F)nc(-c3cccc(-c4ccc(S(N)(=O)=O)s4)c3)n2)ccc1C(F)(F)F |
| 217 to 218 °C | CC(=O)NCc1cccc(Nc2nccc(-c3sc(-c4ncc(C(F)(F)F)cc4Cl)nc3C)n2)c1 |
| 166 °C | CC(C)(O)c1cnn2c(-c3cccc(-c4ccccc4C#N)c3)cnc2n1 |
| 23.5 °C | CCCCCCCCc1cnc(-c2ccc(F)cc2)nc1 |
| 195 to 196 °C | Cc1ncn(Cc2ccc(NC(=O)Nc3ccc(Oc4cc(Cl)ncn4)cc3)cc2C(F)(F)F)c1C |
| 126 to 128 °C | CN1CC(C(=O)N(C)Cc2ccc(C(F)(F)F)cc2)=C(O)C1=O |
| 175 °C | CC(C)(C)OC(=O)N1CCC(Nc2nccc(-c3c(-c4ccc(F)cc4)nc4occn34)n2)CC1 |
| 168 °C | Fc1cccc(F)c1-c1nnc(-c2ccccc2Br)nn1 |
| 150 °C | O=C(O)COc1cc(F)ccc1C(=S)NCc1nc2c(F)c(F)cc(F)c2s1 |
| 111 to 113 °C | O=C(c1ccc(Oc2ccccc2)c([N+](=O)[O-])c1)c1ccc(Oc2ccccc2)c([N+](=O)[O-])c1 |
| 217 to 219 °C | O=C(Nc1ccncc1)c1ccc(-c2ccc3nnn(Cc4ccc5ncccc5c4)c3n2)cc1F |
| 197 to 199 °C | CCOC(=O)C=Cc1cc(C=CC(N)=O)cc(C(O)c2ccc(F)cc2)c1 (centres undefined) |
| 92 to 94 °C | Cc1cc(-c2noc(C(F)(F)F)n2)cc(C)c1OCCCc1ccc(CO)nc1 |
| 104 to 106 °C | O=S(=O)(c1cc(-c2ccc(F)cc2)c(-c2ccc(F)cc2)s1)C(F)(F)F |
| 122 °C | CC(C)(Cc1ccc(S(=O)C(F)(F)F)cc1)C(O)c1cncnc1 (centres undefined) |
| 131 to 135 °C | Cn1cc(-c2ccccc2)c(=O)c(-c2cc(Cl)cc(Cl)c2)c1 |
| 175 to 176 °C | O=c1c(-c2ccccc2)c(-c2ccccc2)sn1-c1ccccc1 |

Further lines, the molecule ahead of its results:

| Compound | melting point |
| --- | --- |
| CCn1c(=O)c2c(nc(/C=C/c3cc(O)c4c(c3)OCO4)n2C)n(CC)c1=O | 265 to 268 °C |
| CC(C)(C)NCC(O)c1cc(F)c(N)cc1F (centres undefined) | 115 to 116 °C |
| CCOC(=O)CCCCOc1ccc(OCC)cc1C=O | 80 to 81 °C |
| CCOC(=O)c1sc(NC(C)=O)c(C(=O)OCC)c1C | 130 to 131 °C |
| COc1ccc2cc(NC(C)=O)cc(C)c2n1 | 193 to 196 °C |
| C=C1CC2C(CCC3(C)C2CCC3(OC(=O)CCCCC)C(C)=O)C2(COC(C)=O)CCC(=O)C=C12 (centres undefined) | 111 to 112 °C |
| COc1c2c(cc3c(C)cc(=O)oc13)CC(C)O2 (centres undefined) | 113 to 115 °C |
| O=C(NC(C(=O)O)c1ccsc1)OCc1ccccc1 (centres undefined) | 115 to 117 °C |
| COc1cnc2[nH]cc(/C=C3\N=C(NCC4CC4)NC3=O)c2c1 | 280 to 286 °C |
| COc1nccc(N[C@H]2CC[C@H](c3ccccc3)CC2)c1Br | 105 °C |
| COc1cc(C)c2c(Oc3cccc(C(F)(F)F)c3)c(OC)cc(NC(C)CCC[N+](=O)[O-])c2n1 (centres undefined) | 84.8 to 85.1 °C |
| COCCNC(=O)c1cccc2c1C1(COc3cc4c(cc31)OCCO4)C(=O)N2C (centres undefined) | 97 to 100 °C |
| C#CCn1cc(C(=O)OCC)sc1=O | 70 to 71 °C |
| O=S(=O)(c1ccccc1Cl)N1CCNc2ncc(I)cc21 | 146 to 147 °C |
| CC[Si](C#Cc1ccc2nc(-c3ncc[nH]3)nc(NCCOC)c2c1)(CC)CC | 158 to 160 °C |
| CCCCCNC(=O)CCCO | 41 to 43 °C |
| CCOC(=O)c1cccc(NC(=O)Oc2ccccc2)c1 | 138 °C |
| CCN1C(=O)C(C)(C)C(=O)N(C)c2cc(CN(CCn3ccc4oc(C)cc4c3=O)Cc3ccc(OC)nc3C)ccc21 | 155 to 156 °C |
| O=C(O)c1cc([N+](=O)[O-])cc2c1Nc1ccc(CCCc3ccc(Cl)c(Cl)c3)cc1O2 | 90 to 93 °C |
| C[Si](C)(C)N(SN=C(Cl)C#N)[Si](C)(C)C | 29 to 30 °C |
| C#Cc1cc(CC)c(-c2c(O)c(C)nn(C)c2=O)c(CC)c1 | 216 to 217 °C |
| CNc1ccsc1C(=O)CS(C)=O (centres undefined) | 125 to 127 °C |
| Cc1cc(-c2cc3nccnc3[nH]2)cn1C | 253 °C |

| Compound | melting point |
| --- | --- |
| O=C(O)c1cc(NCc2c(F)c(F)c(C(F)(F)F)c(F)c2F)ccc1OC(=O)C1CCCCC1 | 190 to 193 °C |
| Cc1nc(-c2cc(N)ccc2F)cs1 | 73 to 75 °C |
| CCCCC(CC)COc1cc(CCl)c(OC)cc1CCl (centres undefined) | 58 to 60 °C |
| CNC(=S)NNc1ccnc2c(NC(=O)c3c(Cl)cccc3Cl)cccc12 | > 258 °C |
| COc1cc2c(cc1OC)C(C)Cn1c-2cc(=Nc2c(C)cc(C)cc2C)n(C)c1=O (centres undefined) | 156 to 157 °C |
| CC(C)(C)c1cc(C=[N+]([O-])C(C)(C)C)c(O)c(C(C)(C)C)c1 | 235 °C |
| CN(C)C(=O)Nc1cnc(N(C)C)c(Cl)c1 | 139 to 141 °C |
| CCOC(=O)CC(=O)CCCn1cncn1 | 114 to 116 °C |
| O=C(NCC1CC1)c1cc2nccnc2c(Cl)c1NC(=O)c1cc(C(F)(F)F)nn1-c1ncccc1Cl | 180 to 183 °C |
| OCC1CCN(c2nc3ccccc3s2)CC1 | 76 to 80 °C |
| CC(=O)Nc1cc(Cl)c(C)c(Cl)c1O | 175 to 176 °C |
| O=S1(=O)c2cccc3cccc(c23)N1CC(Br)CN1CCN(c2ccc(F)cc2)CC1 (centres undefined) | 102 °C |
| CCN(CC)CCOc1ccc(Nc2ncc3c(n2)N(C)C(=O)N(C)C3)cc1 | 186 °C |
| Nc1c(F)cc(Cl)cc1C(O)(C#CC1CC1)C(F)(F)F (centres undefined) | 131 to 135 °C |
| COc1cc2c(cc1Nc1ncc(C(F)(F)F)c(Nc3ccc(N4CCOCC4)cc3OC)n1)CCOC(=O)N2C | 232 to 234 °C |
| COc1cc2c(cc1OC)CC(=O)N(CC1CCCNC1)CC2 (centres undefined) | 152 to 156 °C |
| CCCCCCCc1c(C(=O)OCC)[nH]c(C)c1C | 68 to 69 °C |
| CN(Cc1cc2cc([N+](=O)[O-])ccc2o1)C1Cc2ccc([N+](=O)[O-])cc2C1 (centres undefined) | 109 to 111 °C |
| COc1cc(-c2ncnc(C)c2Cl)c(F)cc1Cl | 136 to 140 °C |
| CCN(c1ccc(N2CCN(c3ccc(OC)cc3)CC2)cc1)c1nnc(C)s1 | 187 °C |
| CC(CCCC(C)(C)O)C1CCC2C3=CC=C4CC(O)CCC4(C)C3CCC21C (centres undefined) | 122 to 125 °C |
| CC(C)c1ccc2c(c1)NC(=O)CC(c1ccnc(C#N)c1)=N2 | 173 to 178 °C |
| CC(C)n1nc(-c2c(NCc3ccco3)nc(N)nc2-c2ccccc2)ccc1=O | 213 to 214 °C |

| Compound | melting point |
| --- | --- |
| Cc1cc2cc(C#CCO)ccc2o1 | 102 °C |
| C=CCOc1ccc(Cl)cc1C(=O)OC | 25 to 26 °C |
| CC1CCN(c2ncc(Br)cc2C=O)C1 (centres undefined) | 72 to 73 °C |
| CCOC(=O)c1c(C)nsc1NC(=O)NC | 187 to 189 °C |
| CCOC(=O)C(=O)c1nsc(NC(=O)c2ccccc2)n1 | 178 to 180 °C |
| COC(=O)c1cc(CSc2ccccc2)cnc1C1=NC(C)(C(C)C)C(=O)N1 (centres undefined) | 135 to 138 °C |
| N#Cc1ccc2c(c1)CCC(CO)O2 (centres undefined) | 85 °C |
| COc1ccc2c(c1)C(=O)CC(C)(C)O2 | 71 to 73 °C |
| C[C@H](CO)CN1CCC(c2noc3cc(F)ccc23)CC1 | 119 to 121 °C |
| CCN1CCN(CC)c2cc(Nc3nc(Cl)ncc3Cl)ccc2C1=O | 71 to 74 °C |
| CN(Cc1ccc(C(=O)Nc2ccc(Nc3cc(-c4cccc5c4oc4ccccc45)ncn3)cc2)cc1)C(=O)OC(C)(C)C | 225 to 230 °C |
| CCOc1cc(Cc2cnc(N)nc2N)cc2c1OC(C)(C)C=C2C(C)(C)O | 209 to 210 °C |
| COC(=O)c1ncn2c1CN=C(c1ccccc1Cl)c1cc(Cl)ccc1-2 | 206 to 208 °C |
| O=C1c2ccc(=O)[nH]c2CC2CCCCC12 (centres undefined) | 301 to 303 °C |
| N=C(N)Nc1ccc(S(=O)(=O)N2CCOCC2)cc1 | 102 to 105 °C |
| CCC(Oc1cnc(Cl)c(Cl)c1)C(=O)O (centres undefined) | 117 to 118 °C |
| CC(C)COC(=O)Nc1cc(F)c(C2=CCSCC2)c(F)c1 | 136 to 137 °C |
| CCOC(=O)N1C(=O)N(C(=O)OCc2ccccc2)C2(C1=O)C(=O)N(Cc1ccc(Cl)c(Cl)c1)c1ccccc12 (centres undefined) | 128 to 131 °C |
| O=C(O)CN1C(=O)C(NC(CCc2ccccc2)C(=O)O)CCc2ccccc21 (centres undefined) | 256 to 259 °C |
| CCOC(=O)c1cn(-c2ccccc2)nc1OCc1ccc(OCc2nc(-c3ccco3)oc2C)c(OC)c1 | 150 to 151 °C |
| COc1c(Cl)ccc(-c2nc(C=O)c(Cl)c(N)c2F)c1F | 192 to 196 °C |
| COC(=O)c1cc(C)nc(C)c1 | 45 to 47 °C |
| O=S(=O)(O)c1ncnn1CC(O)(Cc1ccccc1Cl)C1(Cl)CC1 (centres undefined) | 68 to 70 °C |
